This is an account of results in patent publication US10457677B2 (priority 2015, dated 2019).

The experiment addresses purified human recombinant ATM (ataxia telangiectasia mutated), full length (Homo sapiens (Human), UniProt Q13315). The experiment can be described thus: ATM kinase assay - determination of ATM inhibition (IC50 ATM), TR-FRET. It is filed as biochemical. Particulars: 10 μM ATP, substrate p53. The procedure: ATM kinase assay—determination of ATM inhibition (IC50 ATM):
The IC50 value was determined with the aid of a biochemical ATM kinase assay. The assay consists of two steps: the enzymatic reaction and the detection step. Firstly, ATM (ataxia telangiectasia mutated) protein and the test substance are incubated at different concentrations with addition of substrate protein p53 and ATP. ATM mediates the phosphorylation of p53 at several positions, including at amino acid S15. The amount of phosphorylated p53 is determined with the aid of specific antibodies and the TR-FRET technique. The enzymatic ATM assay is carried out as TR-FRET (HTRF™, Cisbio Bioassays) based 384-well assay. In the first step, purified human recombinant ATM (human ATM, full length, GenBank ID NM_000051, expressed in a mammal cell line) is incubated in assay buffer for 15 minutes with the ATM inhibitor in various concentrations and without test substance as negative or neutral control. The assay buffer comprises 25 mM HEPES pH 8.0, 10 mM Mg(CH3COO)2, 1 mM MnCl2, 0,1% BSA and 0,01% Brij® 35, 5 mM dithiothreitol (DTT). […] In the second step, purified human recombinant cmyc-labelled p53 (human p53, full length, GenBank ID BC003596, expressed in Sf21 insect cells) and ATP are added, and the reaction mixture is incubated at 22° C. for 30-35 minutes. The pharmacologically relevant assay volume is 5 μl. […] The enzymatic reaction is stopped by addition of EDTA. […] After incubation, usually for 2 hours (between 1.5 and 15h), for signal development, the plates are analysed in a plate reader (EnVision, PerkinElmer) using TRF mode (and with laser excitation). […] The measurement data were processed by means of Genedata Screener software.
In general terms: TR-FRET usually uses a lanthanide donor and a delayed reading to cut background.

pIC50: −log10 of the molar value.

purified human recombinant ATM (ataxia telangiectasia mutated), full length, sequence (Q13315 whole entry, change not shown): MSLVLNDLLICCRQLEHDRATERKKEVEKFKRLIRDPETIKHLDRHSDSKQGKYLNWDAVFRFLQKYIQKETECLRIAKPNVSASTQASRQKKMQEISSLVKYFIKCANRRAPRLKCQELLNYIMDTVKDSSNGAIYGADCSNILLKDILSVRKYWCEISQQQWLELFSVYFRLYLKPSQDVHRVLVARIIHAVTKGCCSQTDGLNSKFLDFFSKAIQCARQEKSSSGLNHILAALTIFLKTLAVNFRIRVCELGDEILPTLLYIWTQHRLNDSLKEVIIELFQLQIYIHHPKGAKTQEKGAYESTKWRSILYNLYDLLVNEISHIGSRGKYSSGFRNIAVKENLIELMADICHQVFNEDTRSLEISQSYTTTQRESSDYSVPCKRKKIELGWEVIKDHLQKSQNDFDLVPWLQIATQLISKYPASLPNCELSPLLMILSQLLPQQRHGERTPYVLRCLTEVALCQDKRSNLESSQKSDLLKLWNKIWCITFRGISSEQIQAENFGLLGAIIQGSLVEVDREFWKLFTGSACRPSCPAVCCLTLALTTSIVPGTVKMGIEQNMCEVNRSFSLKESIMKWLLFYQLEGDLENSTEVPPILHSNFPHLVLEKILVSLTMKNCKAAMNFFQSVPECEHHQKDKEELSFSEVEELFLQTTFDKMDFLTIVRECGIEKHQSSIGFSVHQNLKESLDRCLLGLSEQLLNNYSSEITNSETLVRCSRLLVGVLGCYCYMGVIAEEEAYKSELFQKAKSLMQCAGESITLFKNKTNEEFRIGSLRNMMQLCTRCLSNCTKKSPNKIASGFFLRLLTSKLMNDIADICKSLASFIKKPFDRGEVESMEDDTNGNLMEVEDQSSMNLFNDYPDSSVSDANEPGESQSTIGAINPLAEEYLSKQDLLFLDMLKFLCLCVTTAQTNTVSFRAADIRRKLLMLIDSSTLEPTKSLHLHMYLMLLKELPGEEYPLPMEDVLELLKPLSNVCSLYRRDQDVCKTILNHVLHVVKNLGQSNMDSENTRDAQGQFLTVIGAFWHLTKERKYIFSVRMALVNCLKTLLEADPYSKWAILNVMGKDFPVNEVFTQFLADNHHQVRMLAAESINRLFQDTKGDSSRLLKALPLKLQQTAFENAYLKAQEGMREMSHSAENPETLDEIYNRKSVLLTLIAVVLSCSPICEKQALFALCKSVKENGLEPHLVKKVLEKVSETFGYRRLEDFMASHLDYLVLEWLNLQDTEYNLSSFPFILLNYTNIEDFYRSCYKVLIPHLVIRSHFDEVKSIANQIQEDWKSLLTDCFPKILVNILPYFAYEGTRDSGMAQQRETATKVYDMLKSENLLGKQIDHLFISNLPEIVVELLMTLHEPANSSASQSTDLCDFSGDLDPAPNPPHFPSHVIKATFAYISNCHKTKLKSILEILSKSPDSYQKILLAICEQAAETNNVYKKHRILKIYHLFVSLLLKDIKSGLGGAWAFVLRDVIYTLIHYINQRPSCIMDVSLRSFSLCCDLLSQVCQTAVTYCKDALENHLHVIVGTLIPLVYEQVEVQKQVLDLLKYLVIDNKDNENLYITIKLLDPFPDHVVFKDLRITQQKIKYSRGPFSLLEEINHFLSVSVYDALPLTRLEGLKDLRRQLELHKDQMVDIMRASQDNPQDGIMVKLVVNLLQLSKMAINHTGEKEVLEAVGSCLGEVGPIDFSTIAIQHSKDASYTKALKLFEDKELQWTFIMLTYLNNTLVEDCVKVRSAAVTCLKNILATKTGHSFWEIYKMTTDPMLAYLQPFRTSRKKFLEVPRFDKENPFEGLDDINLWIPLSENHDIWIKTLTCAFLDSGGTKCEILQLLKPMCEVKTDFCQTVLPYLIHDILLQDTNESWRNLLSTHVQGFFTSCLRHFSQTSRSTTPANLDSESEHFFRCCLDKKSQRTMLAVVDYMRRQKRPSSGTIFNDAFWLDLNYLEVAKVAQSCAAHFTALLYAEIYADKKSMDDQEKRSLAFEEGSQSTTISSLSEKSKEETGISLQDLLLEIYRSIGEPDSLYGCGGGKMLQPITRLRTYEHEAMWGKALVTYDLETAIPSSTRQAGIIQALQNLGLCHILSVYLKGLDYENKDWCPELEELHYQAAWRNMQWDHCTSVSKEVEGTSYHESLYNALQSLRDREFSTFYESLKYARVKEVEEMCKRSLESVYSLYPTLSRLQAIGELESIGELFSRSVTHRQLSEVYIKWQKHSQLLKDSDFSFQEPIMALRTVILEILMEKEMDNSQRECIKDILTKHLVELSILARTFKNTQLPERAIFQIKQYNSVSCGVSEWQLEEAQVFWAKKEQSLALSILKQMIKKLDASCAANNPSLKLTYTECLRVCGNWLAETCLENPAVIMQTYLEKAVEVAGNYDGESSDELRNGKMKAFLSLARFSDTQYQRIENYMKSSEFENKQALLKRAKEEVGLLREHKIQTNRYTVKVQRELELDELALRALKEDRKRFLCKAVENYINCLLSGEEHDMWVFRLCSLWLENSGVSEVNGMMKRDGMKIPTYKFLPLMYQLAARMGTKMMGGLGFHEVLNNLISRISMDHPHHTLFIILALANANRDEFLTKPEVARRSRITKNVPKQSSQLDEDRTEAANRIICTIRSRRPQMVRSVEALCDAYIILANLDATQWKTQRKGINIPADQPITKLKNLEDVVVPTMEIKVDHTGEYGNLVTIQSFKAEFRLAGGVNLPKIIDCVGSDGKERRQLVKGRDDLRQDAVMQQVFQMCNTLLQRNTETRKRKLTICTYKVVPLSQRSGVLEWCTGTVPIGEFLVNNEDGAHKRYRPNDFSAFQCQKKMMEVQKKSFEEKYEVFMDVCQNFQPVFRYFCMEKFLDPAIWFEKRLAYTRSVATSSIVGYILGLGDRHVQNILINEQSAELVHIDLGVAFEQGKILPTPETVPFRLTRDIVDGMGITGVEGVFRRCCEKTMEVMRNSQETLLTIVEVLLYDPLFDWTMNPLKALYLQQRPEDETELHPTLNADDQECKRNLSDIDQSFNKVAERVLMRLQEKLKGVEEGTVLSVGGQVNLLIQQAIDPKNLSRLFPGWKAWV

As a reminder, the pIC50 is the IC50 on a negative log10 scale, so that one unit is a factor of ten. In the case of `COc1cc2ncc3c(c2cc1-c1cn(C)nn1)n(-c1cn(C)nc1C)c(=O)n3C` [Compound Example 42, 1-(1,3-Dimethyl-1H-pyrazol-4-yl)-7-methoxy-3-methyl-8-(1-methyl-1H-1,2,3-triazol-4-yl)-1,3-dihydroimidazo-[4,5-c]quinolin-2-one], the pIC50 is above 8.00.

As to `COc1cnc(-n2c(=O)n(C)c3cnc4cc(OC)c(-c5cnn[nH]5)cc4c32)c(F)c1` [compound 128, 1-(3-Fluoro-5-methoxy-pyridin-2-yl)-7-methoxy-3-methyl-8-(3H-1,2,3-triazol-4-yl)-1,3-dihydroimidazo-[4,5-c] quinolin-2-one], the pIC50 was above 8.00.

As to `COc1cc2ncc3c(c2cc1-c1cc(N)n[nH]1)n(-c1ncccc1F)c(=O)n3C` [compound 65, 8-(3-Amino-1H-pyrazol-5-yl)-1-(3-fluoro-2-pyridyl)-7-methoxy-3-methyl-imidazo-[4,5-c]quinolin-2-one], the pIC50 was above 9.00.

As to `CCc1cncc(F)c1-n1c(=O)n(C)c2cnc3cc(OC)c(-c4cnn(C)n4)cc3c21` [compound 112, 1-(3-Ethyl-5-fluoropyridin-4-yl)-7-methoxy-3-methyl-8-(2-methyl-2H-1,2,3-triazol-4-yl)-1,3-dihydroimidazo-[4,5-c] quinolin-2-one], the pIC50 was above 8.00.

On to `COc1cc2ncc3[nH]c(=O)n(-c4c(F)cncc4OC)c3c2cc1-c1cnn(C)c1` [compound 116, 1-(3-Fluoro-5-methoxy-pyridin-4-yl)-7-methoxy-8-(1-methyl-1H-pyrazol-4-yl)-1,3-dihydroimidazo[4,5-c]-quinolin-2-one], for which the pIC50 is above 8.00.

As to `COc1cc2ncc3c(c2cc1-c1cn(C)nc1C)n(-c1ncc(OCS(C)(=O)=O)cc1F)c(=O)n3C` [compound 203, 8-(1,3-Dimethyl-1H-pyrazol-4-yl)-1-(3-fluoro-5-methyl-sulfonylmethoxypyridin-2-yl)-7-methoxy-3-methyl-1,3-dihydroimidazo[4,5-c]-quinolin-2-one], the pIC50 is above 9.00.

Take `COc1cc2ncc3c(c2cc1-c1cnn(C)n1)n(-c1c(F)cncc1OC)c(=O)n3C` [compound 127, 1-(3-Fluoro-5-methoxy-pyridin-4-yl)-7-methoxy-3-methyl-8-(2-methyl-2H-1,2,3-triazol-4-yl)-1,3-dihydroimidazo[4,5-c] quinolin-2-one]: the negative logarithm of the IC50 (pIC50) was above 8.00.

Regarding `COc1cc2ncc3[nH]c(=O)n(-c4ncc(F)cc4F)c3c2cc1-c1cnn(C)c1` [compound 107, 1-(3,5-Difluoropyridin-2-yl)-7-methoxy-8-(1-methyl-1H-pyrazol-4-yl)-1,3-dihydro-imidazo[4,5-c]quinolin-2-one], the negative logarithm of the IC50 (pIC50) was above 9.00.

As to `COc1cnc(-n2c(=O)n(C)c3cnc4cc(OC)c(-c5ccc6nc[nH]c6c5)cc4c32)c(F)c1` [compound 153, 8-(3H-Benzimidazol-5-yl)-1-(3-fluoro-5-methoxypyridin-2-yl)-7-methoxy-3-methyl-1,3-dihydroimidazo[4,5-c]-quinolin-2-one], the pIC50 was above 8.00.

Turning to `COc1cc2ncc3c(c2cc1-c1cnn[nH]1)n(-c1c(F)cncc1OC)c(=O)n3C` [compound 134, 1-(3-Fluoro-5-methoxy-pyridin-4-yl)-7-methoxy-3-methyl-8-(3H-1,2,3-triazol-4-yl)-1,3-dihydroimidazo-[4,5-c] quinolin-2-one], the pIC50 is above 9.00.

Take `COc1cc2ncc3c(c2cc1-c1cnc2nc(C)[nH]c2c1)n(-c1c(F)cncc1OC)c(=O)n3C` [compound 152, 1-(3-Fluoro-5-methoxy-pyridin-4-yl)-7-methoxy-3-methyl-8-(2-methyl-1H-imidazo[4,5-b]pyridin-6-yl)-1,3-dihydroimidazo[4,5-c]-quinolin-2-one]: the pIC50 was above 9.00.

Regarding `CCn1cc(-c2cc3c(cc2OC)ncc2c3n(-c3ccncc3OC)c(=O)n2C)cn1` [compound 104, 8-(1-Ethyl-1H-pyrazol-4-yl)-7-methoxy-1-(3-methoxy-pyridin-4-yl)-3-methyl-1,3-dihydroimidazo[4,5-c] quinolin-2-one], the pIC50 was above 8.00.

As to `CCn1cc(-n2c(=O)n(C)c3cnc4cc(OC)c(-c5cnn(C)c5)cc4c32)c(C)n1` [compound 130, 1-(1-Ethyl-3-methyl-1H-pyrazol-4-yl)-7-methoxy-3-methyl-8-(1-methyl-1H-pyrazol-4-yl)-1,3-dihydro-imidazo[4,5-c]quinolin-2-one], the pIC50 was above 9.00.

Turning to `CNCCOc1cnc(-n2c(=O)n(C)c3cnc4cc(OC)c(-c5cnn(C)c5)cc4c32)c(F)c1` [compound 206], the pIC50 was above 8.00.

Consider `COc1ccc(-c2cc3c(cc2OC)ncc2c3n(-c3c(F)cncc3OC)c(=O)n2C)cn1` [compound 137, 1-(3-Fluoro-5-methoxy-pyridin-4-yl)-7-methoxy-8-(6-methoxypyridin-3-yl)-3-methyl-1,3-dihydroimidazo-[4,5-c]quinolin-2-one], for which the pIC50 is above 8.00.

With `COc1cc2ncc3c(c2cc1-c1cnn(C)c1)n(-c1ncccn1)c(=O)n3C` [Compound Example 52, 7-Methoxy-3-methyl-8-(1-methyl-1H-pyrazol-4-yl)-1-pyrimidin-2-yl-1,3-dihydro-imidazo[4,5-c]quinolin-2-one], the pIC50 is above 8.00.

Consider `CNC(=O)c1cnc(-n2c(=O)n(C)c3cnc4cc(OC)c(-c5cn(C)nc5C)cc4c32)c(F)c1` [compound 139, 6-[8-(1,3-Dimethyl-1H-pyrazol-4-yl)-7-methoxy-3-methyl-2-oxo-2,3-dihydro-imidazo[4,5-c]quinolin-1-yl]-5-fluoro-N-methyl-nicotinamid], for which the pIC50 was above 9.00.

For the compound `COc1cc2ncc3c(c2cc1-c1cn(C)nn1)n(-c1ccncc1F)c(=O)n3C` [compound 64, 1-(3-Fluoropyridin-4-yl)-7-methoxy-3-methyl-8-(1-methyl-1H-1,2,3-triazol-4-yl)-1,3-dihydroimidazo-[4,5-c] quinolin-2-one], the pIC50 was above 8.00.

As to `COc1cc2ncc3c(c2cc1-c1cnn(C)c1)n(-c1c(F)cncc1C1CC1)c(=O)n3C` [compound 202, 1-(3-Cyclopropyl-5-fluoro-pyridin-4-yl)-7-methoxy-3-methyl-8-(1-methyl-1H-pyrazol-4-yl)-1,3-dihydro-imidazo[4,5-c]quinolin-2-one], the pIC50 was above 9.00.

Regarding `C=CCOc1cnc(-n2c(=O)n(C)c3cnc4cc(OC)c(-c5cnn(C)c5)cc4c32)c(F)c1` [compound 204, 1-(5-Allyloxy-3-fluoropyridin-2-yl)-7-methoxy-3-methyl-8-(1-methyl-1H-pyrazol-4-yl)-1,3-dihydroimidazo[4,5-c]-quinolin-2-one], the pIC50 is above 9.00.

As for `COc1cc2ncc3c(c2cc1-c1cnn(C)c1)n(-c1c(F)cncc1OCF)c(=O)n3C` [compound 148], the pIC50 was above 9.00.

Consider `COc1cc2ncc3[nH]c(=O)n(-c4c(F)cncc4OC)c3c2cc1-c1cn(C)nc1C` [compound 129, 8-(1,3-Dimethyl-1H-pyrazol-4-yl)-1-(3-fluoro-5-methoxy-pyridin-4-yl)-7-methoxy-1,3-dihydroimidazo[4,5-c]-quinolin-2-one], for which the pIC50 was above 9.00.

With `COc1cnc(-n2c(=O)[nH]c3cnc4cc(OC)c(-c5cnn(C)c5)cc4c32)c(F)c1` [compound 115, 1-(3-Fluoro-5-methoxy-pyridin-2-yl)-7-methoxy-8-(1-methyl-1H-pyrazol-4-yl)-1,3-dihydroimidazo[4,5-c]-quinolin-2-one], the pIC50 was above 8.00.
